The results in this text go back to PMC9688111, “An Evolutionary Perspective on the Origin, Conservation and Binding Partner Acquisition of Tankyrases” (Biomolecules, 2022).

No end group written: not given here. YFP = yellow fluorescent protein

The target of one experiment is T1, AqTNKS ART (Amphimedon queenslandica, UniProt A0AAN0IWK4).
T1 construct: catalytic ART domain, Thr968-Thr1181; MBP tag removed by TEV; E. coli BL21(DE3), codon-optimized
Kind of experiment: differential scanning fluorimetry (SYPRO orange). It is filed as binding. The note with it: […] protein, […] compound, pH […]. For orientation: Differential scanning fluorimetry follows unfolding on heating by fluorescence.

Another experiment concerns the target T2, TNKS1 ART (Homo sapiens, UniProt O95271).
T2 construct: gene TNKS; catalytic ART domain; E. coli BL21(DE3)
T2 sequence (O95271 1105-1327 limits assumed): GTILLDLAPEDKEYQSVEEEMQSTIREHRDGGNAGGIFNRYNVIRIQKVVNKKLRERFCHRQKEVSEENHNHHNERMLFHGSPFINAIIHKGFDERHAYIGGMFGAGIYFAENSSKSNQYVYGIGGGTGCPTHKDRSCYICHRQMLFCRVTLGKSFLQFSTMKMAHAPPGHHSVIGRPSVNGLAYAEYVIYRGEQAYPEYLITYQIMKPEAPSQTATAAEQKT
Kind of experiment: differential scanning fluorimetry (SYPRO orange). Particulars: […] protein, […] compound, pH […]; adenosine site. It counts as binding.

The next experiment has as its target T3, AqTNKS SAM-ART (Amphimedon queenslandica, UniProt A0AAN0IWK4).
T3 construct: SAM and ART domains, Pro889-Thr1181; N-terminal MBP tag kept; E. coli BL21(DE3); forms multimers
Put plainly: auto-PARylation, Western blot. It is filed as biochemical. Particulars: […] protein; biotin-NAD+/NAD+ ([…]), […] total; […] h, room temperature; labelled compound as tracer.

In a further experiment the target is T4, TNKS1 SAM-ART (Homo sapiens, UniProt O95271).
T4 construct: gene TNKS; SAM and ART domains; N-terminal MBP tag kept; E. coli BL21(DE3)
T4 sequence (O95271 1030-1327 limits assumed): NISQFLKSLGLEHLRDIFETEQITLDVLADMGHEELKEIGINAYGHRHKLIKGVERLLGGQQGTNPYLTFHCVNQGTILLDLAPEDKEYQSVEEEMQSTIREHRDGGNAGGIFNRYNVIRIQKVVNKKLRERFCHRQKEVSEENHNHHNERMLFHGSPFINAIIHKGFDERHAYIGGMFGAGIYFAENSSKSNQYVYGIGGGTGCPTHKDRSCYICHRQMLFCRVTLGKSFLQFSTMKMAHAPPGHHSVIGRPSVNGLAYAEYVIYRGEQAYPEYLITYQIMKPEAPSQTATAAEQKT
Kind of experiment: auto-PARylation, Western blot. It is filed as biochemical. The note with it: […] protein; biotin-NAD+/NAD+ ([…]), […] total; […] h, room temperature; labelled compound as tracer.

In a further experiment the target is T5, CFP-ARC5 (AqTNKS) (Amphimedon queenslandica).
T5 chain: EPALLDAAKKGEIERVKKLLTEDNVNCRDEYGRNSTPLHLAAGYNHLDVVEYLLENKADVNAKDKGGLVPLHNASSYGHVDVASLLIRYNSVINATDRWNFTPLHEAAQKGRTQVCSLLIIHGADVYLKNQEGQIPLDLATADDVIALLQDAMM
Kind of experiment: FRET.

For orientation: Kd means a measure of binding affinity in units of concentration. Higher therefore signals a looser complex.

T1 sequence (A0AAN0IWK4 entry or part of it): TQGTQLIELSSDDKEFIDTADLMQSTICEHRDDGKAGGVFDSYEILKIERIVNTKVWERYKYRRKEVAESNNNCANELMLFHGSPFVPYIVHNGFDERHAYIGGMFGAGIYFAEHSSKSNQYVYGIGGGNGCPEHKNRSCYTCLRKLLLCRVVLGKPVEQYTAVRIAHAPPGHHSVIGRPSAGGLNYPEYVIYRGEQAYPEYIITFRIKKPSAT
T3 sequence (A0AAN0IWK4 entry or part of it): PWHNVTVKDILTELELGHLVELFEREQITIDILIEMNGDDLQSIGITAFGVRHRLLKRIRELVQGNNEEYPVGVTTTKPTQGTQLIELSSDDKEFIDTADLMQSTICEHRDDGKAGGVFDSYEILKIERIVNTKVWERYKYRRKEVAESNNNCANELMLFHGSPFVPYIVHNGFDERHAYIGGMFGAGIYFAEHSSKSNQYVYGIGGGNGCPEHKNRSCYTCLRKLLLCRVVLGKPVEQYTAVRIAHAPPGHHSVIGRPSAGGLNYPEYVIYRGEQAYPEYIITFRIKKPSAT

Turning to `Cc1cc(N2C[C@@H](C)N[C@@H](C)C2)ncc1-c1ccc(-c2nc3c(ccn3C)c(=O)[nH]2)cc1` [AZ6102], the Tm shift result on AqTNKS ART (nicotinamide site, compound named in Results but not in the Methods list) is “For all inhibitors, the melting temperatures for both TNKS1 and AqTNKS were similarly increased”.
With `O=c1[nH]nc2c3c(cccc13)NC(CN1Cc3ccccc3C1)=N2` [E7449], the Tm shift entry on AqTNKS ART (nicotinamide site) was “For all inhibitors, the melting temperatures for both TNKS1 and AqTNKS were similarly increased”.
`CS(=O)(=O)c1ccc(-c2nnc(/C=C/c3nnc(-c4ccc(C#N)cc4)o3)n2-c2ccccc2Cl)nc1` [G007-LK]: the Tm shift result at AqTNKS ART (adenosine site) was “For all inhibitors, the melting temperatures for both TNKS1 and AqTNKS were similarly increased”; on TNKS1 ART it was “For all inhibitors, the melting temperatures for both TNKS1 and AqTNKS were similarly increased”.
For the molecule `NC(=O)c1ccc[n+]([C@@H]2O[C@H](COP(=O)(O)OP(=O)(O)OC[C@H]3O[C@@H](n4cnc5c(N)ncnc54)[C@H](O)[C@@H]3O)[C@@H](O)[C@H]2O)c1` [NAD^+], the “auto-PARylation, Western blot” value at AqTNKS SAM-ART is “PARylation of the proteins was clearly detected for the SAM-ART constructs of AqTNKS and TNKS1”; on TNKS1 SAM-ART, “PARylation of the proteins was clearly detected for the SAM-ART constructs of AqTNKS and TNKS1”.
Take `COc1ccc(C(=O)C2CCN(CC(=O)N(Cc3nc4c(c(=O)[nH]3)COCC4)CC3CC3)CC2)cc1` [NVP-TNKS656]: the Tm shift result on AqTNKS ART (dual site) was “For all inhibitors, the melting temperatures for both TNKS1 and AqTNKS were similarly increased”.
For the molecule `O=c1[nH]c(-c2ccc(C(F)(F)F)cc2)nc2c1CSCC2` [XAV939], the Tm shift result at AqTNKS ART (nicotinamide site) is “For all inhibitors, the melting temperatures for both TNKS1 and AqTNKS were similarly increased”.
As to {YFP}-REAGDGEE [YFP-REAGDGEE], the Kd with CFP-ARC5 (AqTNKS) was 98.5 nM.
